# According to ChEMBL document CHEMBL4665725, “Identification of potent inhibitors of the sortilin-progranulin interaction” (Bioorg Med Chem Lett, 2020):
# Legend:
# [1] = biological target: T1, Sortilin/Progranulin (Homo sapiens, UniProt P28799+Q99523); test: Inhibition of SORT1 (unknown origin)-GRN (unknown origin) protein-protein interaction by HTRF assay
# T1 sequence (Q99523 whole entry): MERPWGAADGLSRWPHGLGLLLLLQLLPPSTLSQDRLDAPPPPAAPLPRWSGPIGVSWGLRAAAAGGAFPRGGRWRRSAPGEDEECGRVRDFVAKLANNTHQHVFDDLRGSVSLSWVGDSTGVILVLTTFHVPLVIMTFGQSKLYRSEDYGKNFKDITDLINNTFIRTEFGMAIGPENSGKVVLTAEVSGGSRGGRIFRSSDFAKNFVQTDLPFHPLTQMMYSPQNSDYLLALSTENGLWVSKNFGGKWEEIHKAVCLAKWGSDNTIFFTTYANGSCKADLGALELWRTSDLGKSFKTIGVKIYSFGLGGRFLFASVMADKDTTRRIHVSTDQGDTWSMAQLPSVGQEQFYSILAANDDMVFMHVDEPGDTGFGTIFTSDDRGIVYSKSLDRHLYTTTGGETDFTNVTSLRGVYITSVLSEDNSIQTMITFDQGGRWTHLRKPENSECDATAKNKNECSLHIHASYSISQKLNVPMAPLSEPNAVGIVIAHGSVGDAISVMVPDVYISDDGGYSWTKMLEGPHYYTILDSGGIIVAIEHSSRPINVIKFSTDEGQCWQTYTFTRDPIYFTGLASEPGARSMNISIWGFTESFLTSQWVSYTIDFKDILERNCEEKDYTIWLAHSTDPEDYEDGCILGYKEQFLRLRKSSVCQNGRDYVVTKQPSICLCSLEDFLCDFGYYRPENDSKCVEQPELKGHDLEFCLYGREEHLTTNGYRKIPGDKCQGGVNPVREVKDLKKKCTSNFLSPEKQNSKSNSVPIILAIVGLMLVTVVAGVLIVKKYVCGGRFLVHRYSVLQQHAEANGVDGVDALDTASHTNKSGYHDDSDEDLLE
# T1 sequence (P28799 whole entry): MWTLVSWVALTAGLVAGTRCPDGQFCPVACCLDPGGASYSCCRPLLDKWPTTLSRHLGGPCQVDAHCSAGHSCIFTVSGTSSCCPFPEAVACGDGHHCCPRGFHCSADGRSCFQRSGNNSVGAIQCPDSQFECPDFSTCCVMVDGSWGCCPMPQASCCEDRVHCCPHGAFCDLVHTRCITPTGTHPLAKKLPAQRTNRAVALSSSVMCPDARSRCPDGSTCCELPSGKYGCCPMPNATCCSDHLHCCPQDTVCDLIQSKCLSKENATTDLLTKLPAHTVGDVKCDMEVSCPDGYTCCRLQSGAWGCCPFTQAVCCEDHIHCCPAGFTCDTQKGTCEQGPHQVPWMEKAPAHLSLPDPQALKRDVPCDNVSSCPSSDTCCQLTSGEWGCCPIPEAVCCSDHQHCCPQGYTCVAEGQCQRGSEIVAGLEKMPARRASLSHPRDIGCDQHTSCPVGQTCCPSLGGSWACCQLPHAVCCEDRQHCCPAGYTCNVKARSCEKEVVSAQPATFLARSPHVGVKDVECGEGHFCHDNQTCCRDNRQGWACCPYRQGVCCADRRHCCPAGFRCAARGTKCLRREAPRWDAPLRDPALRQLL
# [2] = Solubility of the compound at pH 2; assay type: physicochemical; settings: buffer
# [3] = Unbound clearance in rat; assay type: ADME; settings: in vivo
# [4] = Half life in rat; assay type: ADME; settings: in vivo
# [5] = Solubility of the compound at pH 7; assay type: physicochemical; settings: buffer
# [6] = biological target: T1, Sortilin/Progranulin; test: Inhibition of SORT1 (unknown origin)-GRN (unknown origin) protein-protein interaction assessed as increase in progranulin level by cell-based ELISA
# [7] = tested on: P-gp; test: Substrate activity at human P-gp in MDR1 cells assessed as efflux ratio; assay type: ADME, cell-based
# [8] = Apparent permeability of the compound; assay type: ADME; settings: not told
# [9] = Oral bioavailability in rat; assay type: ADME, organism-based; settings: in vivo
# [10] = Protein binding in rat plasma; assay type: ADME, cell-free; settings: read-out: PPB (converted)
# [11] = Clearance in rat; assay type: ADME; settings: in vivo
# [12] = tested on: P-gp; test: Substrate activity at rat P-gp assessed as efflux ratio; assay type: ADME; settings: not told
SMILES,IC50 [1],other results
COc1cccc(C(=O)N[C@@H](CC(C)C)C(=O)O)c1,6.8 µM,–
Cn1nc(C(C)(C)C)cc1C(=O)O,8.3 µM,–
CC(C)C[C@H](NC(=O)C1CCCC1)C(=O)O,25.3 µM,–
CC(C)C[C@H](NC(=O)c1cnc2ccccc2n1)C(=O)O,6.3 µM,–
CC(C)(C)CC[C@H](NC(=O)c1cc(Cl)cc(Cl)c1)C(=O)O,0.17 µM,solubility [2]: 69 µM; CL free [3]: 215 mL/min/kg; half-life [4]: 5.9 h; solubility [5]: 134 µM; IC50 [6]: 0.65 µM; efflux ratio [7]: 1.8; Papp [8]: 23 ×10⁻⁶ cm/s; bioavailability [9]: 100%; fraction unbound [10]: 0.0028; clearance [11]: 0.6 mL/min/kg; efflux ratio [12]: 3.9
C=C(C)C[C@H](NC(=O)c1cc(Cl)cc(Cl)c1)C(=O)O,17.1 µM,–
CC(C)C[C@H](NC(=O)C1CN(Cc2cc(Cl)cc(Cl)c2)CCO1)C(=O)O (stereo not given in full),14.4 µM,–
CC(C)(C)c1cc(C(=O)O)n(-c2ccccc2)n1,7.8 µM,–
O=C(N[C@@H](CC12CC(C1)C2)C(=O)O)c1cc(Cl)cc(Cl)c1,18 µM,–
CC(C)(C)CCc1cc(C(=O)O)n(Cc2ccccc2)n1,> 67 µM,–
CC(C)(C)c1cc(C(=O)O)n(Cc2ccccc2)n1,2 µM,–
CC(C)(C)OC[C@H](NC(=O)c1cc(Cl)cc(Cl)c1)C(=O)O,1.5 µM,–
CC(C)(C)CC[C@H](NC(=O)c1cc(Cl)c[nH]1)C(=O)O,0.09 µM,solubility [2]: 123 µM; CL free [3]: 134 mL/min/kg; half-life [4]: 1.5 h; solubility [5]: 135 µM; IC50 [6]: 0.29 µM; efflux ratio [7]: 2; Papp [8]: 4.8 ×10⁻⁶ cm/s; fraction unbound [10]: 0.0216; clearance [11]: 2.8 mL/min/kg; efflux ratio [12]: 1.3
CC(C)(C)C[C@H](NC(=O)c1ccc(Oc2ccccc2)nc1)C(=O)O,0.065 µM,–
CC(C)c1cc(C(=O)O)n(CCc2ccccc2)n1,> 67 µM,–
CC(C)(C)CC[C@H](NC(=O)c1ccc(Oc2ccccc2)nc1)C(=O)O,0.02 µM,solubility [2]: 126 µM; CL free [3]: 453 mL/min/kg; half-life [4]: 1.6 h; solubility [5]: 147 µM; IC50 [6]: 0.12 µM; efflux ratio [7]: 2.2; Papp [8]: 7 ×10⁻⁶ cm/s; fraction unbound [10]: 0.0077; clearance [11]: 3.35 mL/min/kg; efflux ratio [12]: 3.5
CC(C)(C)c1cc(C(=O)O)n(CCc2ccccc2)n1,5.3 µM,–

SMILES,IC50 [1],other results
O=C(N[C@@H](Cc1ccccc1)C(=O)O)c1cc(Cl)cc(Cl)c1,> 67 µM,–
O=C(N[C@@H](CC1CCCCC1)C(=O)O)c1cc(Cl)cc(Cl)c1,2.3 µM,–
CC(OC(C)(C)C)[C@H](NC(=O)c1cc(Cl)cc(Cl)c1)C(=O)O (stereo not given in full),> 67 µM,–
CC(C)C[C@H](NC(=O)c1cccc(Cl)c1)C(=O)O,4.5 µM,–
O=C(N[C@@H](CC1CC1)C(=O)O)c1cc(Cl)cc(Cl)c1,10.7 µM,–
CC(C)(C)C[C@H](NC(=O)c1cc(Cl)cc(Cl)c1)C(=O)O,0.35 µM,–
CC(C)C[C@H](NC(=O)C(C)(C)Cc1ccc(Cl)cc1)C(=O)O,6.8 µM,–
CC(C)C[C@H](NC(=O)c1cnn(C)c1)C(=O)O,5.3 µM,–
CC(C)(C)c1cc(C(=O)O)n(Cc2ccc(Oc3ccccc3)nc2)n1,2.1 µM,–
CC(C)(C)c1cc(C(=O)O)n(Cc2cc(Cl)cc(Cl)c2)n1,2.1 µM,–
CC(C)C[C@H](NC(=O)c1ccc(Cl)c(Cl)c1)C(=O)O,4.3 µM,–
CC(C)C[C@H](NC(=O)c1cc(Cl)cc(Cl)c1)C(=O)O,2.7 µM,–
CC(C)(C)c1cc(C(=O)O)n(Cc2ccc(-n3cccn3)nc2)n1,3 µM,–
CC(C)C[C@H](NC(c1cc(Cl)cc(Cl)c1)C(F)(F)F)C(=O)O (stereo not given in full),10.8 µM,–
CC(C)(C)c1cc(C(=O)O)n(Cc2nnc(-c3ccccc3)o2)n1,0.49 µM,–
CC(C)(C)Cc1cc(C(=O)O)n(Cc2ccccc2)n1,6.6 µM,–
CC(C)(C)CC(NC(=O)c1cc(Cl)cc(Cl)c1)c1nn[nH]n1 (racemic),6.9 µM,–
